What all share (assay type): organism-based
The subject of series [1] is Vigna angularis. In words: Phytotoxicity in Vigna angularis (adzuki bean) assessed as visual injury at 72 g ai/ha after 28 days applied as spray relative to untreated control. The following applies: in vivo, other, 672 h.
Series [2] concerns Vigna angularis. As to the kind of experiment: Phytotoxicity in Vigna angularis (adzuki bean) assessed as visual injury at 144 g ai/ha after 7 days applied as spray relative to untreated control. Conditions: in vivo, other, 168 h.
The test system of series [3] is Vigna angularis. In words: Phytotoxicity in Vigna angularis (adzuki bean) assessed as visual injury at 144 g ai/ha after 14 days applied as spray relative to untreated control. The following applies: in vivo, other, 336 h.
Series [4] has as its system Vigna angularis. As to the kind of experiment: Phytotoxicity in Vigna angularis (adzuki bean) assessed as plant height at 144 g ai/ha after 28 days applied as spray (RVB = 34 cm). Conditions: in vivo, other, 672 h.
The test system of series [5] is Vigna angularis. As to the kind of experiment: Phytotoxicity in Vigna angularis (adzuki bean) assessed as shoot dry weight at 144 g ai/ha measured per 1 m row after 42 days applied as spray (reference value: 153 g). The following applies: in vivo, other, 1008 h.
The test system of series [6] is Vigna angularis. As to the kind of experiment: Phytotoxicity in Vigna angularis (adzuki bean) assessed as visual injury at 144 g ai/ha after 28 days applied as spray relative to untreated control. Conditions: in vivo, other, 672 h.
Series [7] has as its system Vigna angularis. As to the kind of experiment: Phytotoxicity in Vigna angularis (adzuki bean) assessed as visual injury at 72 g ai/ha after 7 days applied as spray relative to untreated control. The following applies: in vivo, other, 168 h.
The subject of series [8] is Vigna angularis. As to the kind of experiment: Phytotoxicity in Vigna angularis (adzuki bean) assessed as seed moisture content at 72 g ai/ha after 42 days applied as spray (reference value: 13.9%). Conditions: in vivo, other, 1008 h, at 72 g/ha.
The subject of series [9] is Vigna angularis. In words: Phytotoxicity in Vigna angularis (adzuki bean) assessed as seed moisture content at 144 g ai/ha after 42 days applied as spray (reference value: 13.9%). Conditions: in vivo, other, 1008 h, at 144 g/ha.
Series [10] relates to Vigna angularis. In words: Phytotoxicity in Vigna angularis (adzuki bean) assessed as plant height at 72 g ai/ha after 28 days applied as spray (RVB = 34 cm). The following applies: in vivo, other, 672 h.
Series [11] concerns Vigna angularis. In words: Phytotoxicity in Vigna angularis (adzuki bean) assessed as visual injury at 72 g ai/ha after 14 days applied as spray relative to untreated control. The following applies: in vivo, other, 336 h.
Series [12] relates to Vigna angularis. As to the kind of experiment: Phytotoxicity in Vigna angularis (adzuki bean) assessed as crop yield at 72 g ai/ha measured during post emergence applied as spray (reference value: 2.05 t/ha). Conditions: in vivo, other.
In series [13] the test system is Vigna angularis. In words: Phytotoxicity in Vigna angularis (adzuki bean) assessed as shoot dry weight at 72 g ai/ha measured per 1 m row after 42 days applied as spray (reference value: 153 g). Conditions: in vivo, other, 1008 h.
Series [14] relates to Vigna angularis. As to the kind of experiment: Phytotoxicity in Vigna angularis (adzuki bean) assessed as crop yield at 144 g ai/ha measured during post emergence applied as spray (reference value: 2.05 t/ha). The following applies: in vivo, other.
For series [15], the system named is Vigna angularis. As to the kind of experiment: Phytotoxicity in Vigna angularis (adzuki bean) assessed as plant height at 480 g ai/ha after 28 days applied as spray (RVB = 34 cm). Conditions: in vivo, other, 672 h.
Series [16] concerns Vigna angularis. As to the kind of experiment: Phytotoxicity in Vigna angularis (adzuki bean) assessed as visual injury at 480 g ai/ha after 7 days applied as spray relative to untreated control. The following applies: in vivo, other, 168 h.
The subject of series [17] is Vigna angularis. In words: Phytotoxicity in Vigna angularis (adzuki bean) assessed as visual injury at 240 g ai/ha after 14 days applied as spray relative to untreated control. Conditions: in vivo, other, 336 h.
Series [18] relates to Vigna angularis. As to the kind of experiment: Phytotoxicity in Vigna angularis (adzuki bean) assessed as shoot dry weight at 240 g ai/ha measured per 1 m row after 42 days applied as spray (reference value: 153 g). The following applies: in vivo, other, 1008 h.
Series [19] concerns Vigna angularis. As to the kind of experiment: Phytotoxicity in Vigna angularis (adzuki bean) assessed as seed moisture content at 240 g ai/ha after 42 days applied as spray (reference value: 13.9%). Conditions: in vivo, other, 1008 h, at 240 g/ha.
In series [20] the test system is Vigna angularis. In words: Phytotoxicity in Vigna angularis (adzuki bean) assessed as crop yield at 240 g ai/ha measured during post-emergence applied as spray (reference value: 2.05 t/ha). Conditions: in vivo, other.
Series [21] relates to Vigna angularis. As to the kind of experiment: Phytotoxicity in Vigna angularis (adzuki bean) assessed as visual injury at 240 g ai/ha after 7 days applied as spray relative to untreated control. Conditions: in vivo, other, 168 h.
The test system of series [22] is Vigna angularis. As to the kind of experiment: Phytotoxicity in Vigna angularis (adzuki bean) assessed as visual injury at 480 g ai/ha after 28 days applied as spray relative to untreated control. The following applies: in vivo, other, 672 h.
Series [23] has as its system Vigna angularis. In words: Phytotoxicity in Vigna angularis (adzuki bean) assessed as visual injury at 240 g ai/ha after 28 days applied as spray relative to untreated control. The following applies: in vivo, other, 672 h.
For series [24], the system named is Vigna angularis. As to the kind of experiment: Phytotoxicity in Vigna angularis (adzuki bean) assessed as seed moisture content at 480 g ai/ha after 42 days applied as spray (reference value: 13.9%). Conditions: in vivo, other, 1008 h, at 480 g/ha.
In series [25] the test system is Vigna angularis. As to the kind of experiment: Phytotoxicity in Vigna angularis (adzuki bean) assessed as crop yield at 480 g ai/ha measured during post emergence applied as spray (reference value: 2.05 t/ha). The following applies: in vivo, other.
The test system of series [26] is Vigna angularis. As to the kind of experiment: Phytotoxicity in Vigna angularis (adzuki bean) assessed as visual injury at 480 g ai/ha after 14 days applied as spray relative to untreated control. Conditions: in vivo, other, 336 h.
The test system of series [27] is Vigna angularis. In words: Phytotoxicity in Vigna angularis (adzuki bean) assessed as decrease in shoot dry weight at 480 g ai/ha after 42 days applied as spray relative to untreated control. Also noted: scale not given: the % may be the effect or the level left. Conditions: in vivo, other, 1008 h.
In series [28] the test system is Vigna angularis. In words: Phytotoxicity in Vigna angularis (adzuki bean) assessed as plant height at 240 g ai/ha after 28 days applied as spray (RVB = 34 cm). Conditions: in vivo, other, 672 h.

`CCOC(=O)[C@@H](C)Oc1ccc(Oc2cnc3cc(Cl)ccc3n2)cc1` [QUIZALOFOP-P-ETHYL]: the Activity in the series with Vigna angularis [1] turned out to be 0.3%; with Vigna angularis [2] it was 2.4%; with Vigna angularis [3], 1.8%; in the series on Vigna angularis [4] it was 33.2 cm; in the series on Vigna angularis [5], 135 g; in the series on Vigna angularis [6], 0.8%. Moreover, the Activity in the series on Vigna angularis [7] came to 1.4%; in the series on Vigna angularis [8], 13.9%; with Vigna angularis [9], 14.1%; in the series on Vigna angularis [10], 35.2 cm; with Vigna angularis [11], 1.2%; in the series on Vigna angularis [13] it was 140 g. Moreover, the Crop_yield is on record as 2.22 tons/ha in the series with Vigna angularis [12] and 2.08 tons/ha in the series with Vigna angularis [14].
With `CS(=O)(=O)NC(=O)c1cc(Oc2ccc(C(F)(F)F)cc2Cl)ccc1[N+](=O)[O-]` [FOMESAFEN], the Activity in the series with Vigna angularis [15] amounted to 31.3 cm; with Vigna angularis [16] it was 9.8%; with Vigna angularis [17], 4.6%; in the series on Vigna angularis [18], 140 g; in the series on Vigna angularis [19], 14.2%; in the series with Vigna angularis [21], 6.8%. Besides, the Activity with Vigna angularis [22] is 2.6%; in the series on Vigna angularis [23], 1.7%; in the series on Vigna angularis [24], 14.4%; in the series on Vigna angularis [26] it was 7.2%; in the series on Vigna angularis [27] it was 16%; in the series with Vigna angularis [28] it was 32.4 cm. Further, the Crop_yield with Vigna angularis [20] was found to be 1.88 tons/ha; in the series with Vigna angularis [25] it was 1.81 tons/ha.

Values taken from ChEMBL document CHEMBL3044665, “Adzuki bean (Vigna angularis) responses to post-emergence herbicides” (Crop Prot, 2006).
